Molecules are shown by their SMILES. Where a name gives a salt, the structure may show the parent alone. Bounds are passed on as bounds.

`C[C@@H]1CN(c2ccc3nc(-c4ccc(F)cc4)c(-c4ccnc5[nH]ccc45)n3n2)C[C@H](C)N1` [Compound 11, 6-[(cis)-3,5-Dimethylpiperazin-1-yl]-2-(4-fluorophenyl)-3-(1H-pyrrolo[2,3-b]pyridin-4-yl)imidazo[1,2-b]pyridazine] came in with a melting point of 288 to 290 °C.

As to `Cc1cc(N2CCNC(C)(C)C2)nn2c(-c3ccnc4[nH]ccc34)c(-c3ccc(F)cc3)nc12` [Compound 10, 6-(3,3-Dimethylpiperazin-1-yl)-2-(4-fluorophenyl)-8-methyl-3-(1H-pyrrolo[2,3-b]pyridin-4-yl)imidazo[1,2-b]pyridazine], the melting point is over 300 °C.

Consider `Cc1cc(N2C[C@@H]3CCCN(C)[C@@H]3C2)nn2c(-c3ccnc4[nH]ccc34)c(-c3ccc(F)cc3)nc12` [Compound 33, 2-(4-Fluorophenyl)-8-methyl-6-((4aS,7aS)-1-methyloctahydro-6H-pyrrolo[3,4-b]pyridin-6-yl)-3-(1H-pyrrolo[2,3-b]pyridin-4-yl)imidazo[1,2-b]pyridazine], for which the melting point was over 260 °C.

As for `Cc1cc(N2CCN(CCO)CC2)nn2c(-c3ccnc4[nH]ccc34)c(-c3cccc(F)c3)nc12` [Compound 12, 2-{4-[2-(3-Fluorophenyl)-8-methyl-3-(1H-pyrrolo[2,3-b]pyridin-4-yl)imidazo[1,2-b]pyridazin-6-yl]piperazin-1-yl}ethanol], the melting point lay in the range of 201 to 203 °C.

`Cc1cc(N2CCN(CC(C)(C)O)CC2)nn2c(-c3ccnc4[nH]ccc34)c(-c3cccc(F)c3)nc12` [Compound 21, 1-{4-[2-(3-Fluorophenyl)-8-methyl-3-(1H-pyrrolo[2,3-b]pyridin-4-yl)imidazo[1,2-b]pyridazin-6-yl]piperazin-1-yl}-2-methylpropan-2-ol] displayed a melting point of over 270 °C.

As to `Cc1cc(N2CCNC3(CCCC3)C2)nn2c(-c3ccnc4[nH]ccc34)c(-c3ccc(F)cc3)nc12` [Compound 18, 6-(6,9-Diazaspiro[4.5]dec-9-yl)-2-(4-fluorophenyl)-8-methyl-3-(1H-pyrrolo[2,3-b]pyridin-4-yl)imidazo[1,2-b]pyridazine], the melting point lay within 293 to 299 °C.

The molecule `CN1C[C@@H]2C[C@H]1CN2c1ccc2nc(-c3ccc(F)cc3)c(-c3ccnc4[nH]ccc34)n2n1` [Compound 34, 2-(4-Fluorophenyl)-6-((1S,4S)-5-methyl-2,5-diazabicyclo[2.2.1]hept-2-yl)-3-(1H-pyrrolo[2,3-b]pyridin-4-yl)imidazo[1,2-b]pyridazine] yielded a melting point of 148 to 168 °C.

As to `Cc1cc(N2CCN(CCO)CC2)nn2c(-c3ccnc4[nH]ccc34)c(-c3ccc(F)cc3)nc12` [Compound 13, 2-{4-[2-(4-Fluorophenyl)-8-methyl-3-(1H-pyrrolo[2,3-b]pyridin-4-yl)imidazo[1,2-b]pyridazin-6-yl]piperazin-1-yl}ethanol], the melting point is 239 to 242 °C.

`Cc1cc(N2C[C@H]3CCCN(C)[C@H]3C2)nn2c(-c3ccnc4[nH]ccc34)c(-c3ccc(F)cc3)nc12` [Compound 32, 2-(4-Fluorophenyl)-8-methyl-6-((4aR,7aR)-1-methyloctahydro-6H-pyrrolo[3,4-b]pyridin-6-yl)-3-(1H-pyrrolo[2,3-b]pyridin-4-yl)imidazo[1,2-b]pyridazine] returned a melting point of over 260 °C.

The molecule `CN1C[C@@H]2CN(c3ccc4nc(-c5ccc(F)cc5)c(-c5ccnc6[nH]ccc56)n4n3)C[C@@H]2C1` [Compound 28, (cis)-2-(4-Fluorophenyl)-6-(5-methylhexahydropyrrolo[3,4-c]pyrrol-2(1H)-yl)-3-(1H-pyrrolo[2,3-b]pyridin-4-yl)imidazo[1,2-b]pyridazine] registered a melting point of 238 to 239 °C.

`Fc1ccc(-c2nc3ccc(N4CCN(Cc5ccccc5)CC4)nn3c2-c2ccnc3[nH]ccc23)cc1` [Compound 27, 6-(4-Benzylpiperazin-1-yl)-2-(4-fluorophenyl)-3-(1H-pyrrolo[2,3-b]pyridin-4-yl)imidazo[1,2-b]pyridazine]: the melting point was 274 to 278 °C.

As for `CC(C)(O)CCN1CCN(c2ccc3nc(-c4ccc(F)cc4)c(-c4ccnc5[nH]ccc45)n3n2)CC1` [Compound 23, 4-{4-[2-(4-Fluorophenyl)-3-(1H-pyrrolo[2,3-b]pyridin-4-yl)imidazo[1,2-b]pyridazin-6-yl]piperazin-1-yl}-2-methylbutan-2-ol], the melting point is 73 to 75 °C.

Molecule `Cc1cc(N2CCNC(C)(C)C2)nn2c(-c3ccnc4[nH]ccc34)c(-c3cccc(F)c3)nc12` [Compound 9, 6-(3,3-Dimethylpiperazin-1-yl)-2-(3-fluorophenyl)-8-methyl-3-(1H-pyrrolo[2,3-b]pyridin-4-yl)imidazo[1,2-b]pyridazine] had a melting point of 270 to 273 °C.

The molecule `CC(C)(CO)N1CCN(c2ccc3nc(-c4ccc(F)cc4)c(-c4ccnc5[nH]ccc45)n3n2)CC1` [Compound 19, 2-{4-[2-(4-Fluorophenyl)-3-(1H-pyrrolo[2,3-b]pyridin-4-yl)imidazo[1,2-b]pyridazin-6-yl]piperazin-1-yl}-2-methylpropan-1-ol] displayed a melting point of over 250 °C.

Regarding `Cc1cc(N2C[C@H]3CN(CCO)C[C@H]3C2)nn2c(-c3ccnc4[nH]ccc34)c(-c3ccc(F)cc3)nc12` [Compound 31, (cis)-2-{5-[2-(4-Fluorophenyl)-8-methyl-3-(1H-pyrrolo[2,3-b]pyridin-4-yl)imidazo[1,2-b]pyridazin-6-yl]hexahydropyrrolo[3,4-c]pyrrol-2(1H)-yl}ethanol], the melting point was in the range of 271 to 275 °C.

The molecule `Cc1cc(N2CCN(CC(C)(C)O)CC2)nn2c(-c3ccnc4[nH]ccc34)c(-c3ccc(F)cc3)nc12` [Compound 22, 1-{4-[2-(4-Fluorophenyl)-8-methyl-3-(1H-pyrrolo[2,3-b]pyridin-4-yl)imidazo[1,2-b]pyridazin-6-yl]piperazin-1-yl}-2-methylpropan-2-ol] yielded a melting point of 265 to 268 °C.

As for `CC(C)N1CCN(c2ccc3nc(-c4ccc(F)cc4)c(-c4ccnc5[nH]ccc45)n3n2)CC1` [Compound 14, 2-(4-Fluorophenyl)-6-(4-isopropylpiperazin-1-yl)-3-(1H-pyrrolo[2,3-b]pyridin-4-yl)imidazo[1,2-b]pyridazine], the melting point lay within 271 to 273 °C.

For `OCCN1C[C@@H]2CN(c3ccc4nc(-c5ccc(F)cc5)c(-c5ccnc6[nH]ccc56)n4n3)C[C@@H]2C1` [Compound 30, (cis)-2-{5-[2-(4-Fluorophenyl)-3-(1H-pyrrolo[2,3-b]pyridin-4-yl)imidazo[1,2-b]pyridazin-6-yl]hexahydropyrrolo[3,4-c]pyrrol-2(1H)-yl}ethanol], the melting point fell in the range of 175 to 180 °C.

Turning to `Fc1ccc(-c2nc3ccc(N4CCN[C@@H](c5ccccc5)C4)nn3c2-c2ccnc3[nH]ccc23)cc1` (as salt: HCl) [Compound 25, (S)-2-(4-Fluorophenyl)-6-[3-phenylpiperazin-1-yl]-3-(1H-pyrrolo[2,3-b]pyridin-4-yl)imidazo[1,2-b]pyridazine], the melting point was 215 °C (dec.).

In turn, `Cc1cc(N2CCN(C(C)C)CC2)nn2c(-c3ccnc4[nH]ccc34)c(-c3ccc(F)cc3)nc12` [Compound 15, 2-(4-Fluorophenyl)-6-(4-isopropylpiperazin-1-yl)-8-methyl-3-(1H-pyrrolo[2,3-b]pyridin-4-yl)imidazo[1,2-b]pyridazine] displayed a melting point of 285 to 291 °C.

As to `Fc1ccc(-c2nc3ccc(N4CCN[C@H](c5ccccc5)C4)nn3c2-c2ccnc3[nH]ccc23)cc1` (as salt: HCl) [Compound 24, (R)-2-(4-Fluorophenyl)-6-[3-phenylpiperazin-1-yl]-3-(1H-pyrrolo[2,3-b]pyridin-4-yl)imidazo[1,2-b]pyridazine], the melting point was 215 °C (dec.).

`Cc1cc(N2CCNC(c3ccccc3)C2)nn2c(-c3ccnc4[nH]ccc34)c(-c3ccc(F)cc3)nc12` (stereo not shown) [Compound 26, 2-(4-Fluorophenyl)-8-methyl-6-[3-phenylpiperazin-1-yl]-3-(1H-pyrrolo[2,3-b]pyridin-4-yl)imidazo[1,2-b]pyridazine] came in with a melting point of 253 to 257 °C.

In general, melting point refers to the temperature of the solid-liquid transition.
